In the supplement of paper PMC10307832:

Columns and labels:
Test in all cases: relative viability (nuclei count vs DMSO), 5 days (fraction); higher = more cells survive
NCI-H2405 = system: NCI-H2405
Outline: (§1)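 Cells from lung cancer lines were seeded into 1536-well plates and, one day later, dosed by pin tool. Treatments were either a single drug or a fixed dose of an anchor drug with five library-drug doses (not always all listed) in √10 steps. After 5 days, nuclei were stained in a one-step fixation (final 0.05% Triton X-100, 1% formaldehyde, 1 ug/ml Hoechst) and counted on 4× images, and relative viability is the treated-to-vehicle nuclei ratio, as the median of duplicate plates.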

NCI-H1437 = system: NCI-H1437
Outline: as §1

ABC-1 = system: ABC-1
Outline: as §1

SK-MES-1 = system: SK-MES-1
Outline: as §1

PC-3 [JPC-3] = system: PC-3 [JPC-3]
Outline: as §1

EKVX = system: EKVX
Outline: as §1

COR-L23 = system: COR-L23
Outline: as §1

NCI-H520 = system: NCI-H520
Outline: as §1

NCI-H1651 = system: NCI-H1651
Outline: as §1

CAL-12T = system: CAL-12T
Outline: as §1

SW 1573 = system: SW 1573
Outline: as §1

NCI-H2228 = system: NCI-H2228
Outline: as §1

NCI-H322M = system: NCI-H322M
Outline: as §1

NCI-H661 = system: NCI-H661
Outline: as §1

RERF-LC-KJ = system: RERF-LC-KJ
Outline: as §1

NCI-H1734 = system: NCI-H1734
Outline: as §1

H3255 = system: H3255
Outline: as §1

NCI-H1563 = system: NCI-H1563
Outline: as §1

LK-2 = system: LK-2
Outline: as §1

HCC-827 = system: HCC-827
Outline: as §1

HCC-15 = system: HCC-15
Outline: as §1

NCI-H1355 = system: NCI-H1355
Outline: as §1

PC-14 = system: PC-14
Outline: as §1

NCI-H1650 = system: NCI-H1650
Outline: as §1

## Clc1ccc(Nc2nnc(Cc3ccncc3)c3ccccc23)cc1 [Vatalanib] + COc1cc2c(Oc3ccc(NC(=O)C4(C(=O)Nc5ccc(F)cc5)CC4)cc3F)ccnc2cc1OCCCN1CCOCC1 [Foretinib] (partner 0.25 µM)
NCI-H2405; first compound 0.04 µM
  relative viability: 1.04
NCI-H2405; first compound 0.1265 µM
  relative viability: 1.06
NCI-H2405; first compound 1.265 µM
  relative viability: 1.02
NCI-H2405; first compound 4 µM
  relative viability: 0.965
NCI-H1437; first compound 0.04 µM
  relative viability: 1.25
NCI-H1437; first compound 0.1265 µM
  relative viability: 1.27
NCI-H1437; first compound 0.4 µM
  relative viability: 1.4
NCI-H1437; first compound 1.265 µM
  relative viability: 1.21
NCI-H1437; first compound 4 µM
  relative viability: 1.26
ABC-1; first compound 0.04 µM
  relative viability: 1.32
ABC-1; first compound 0.1265 µM
  relative viability: 1.11
ABC-1; first compound 1.265 µM
  relative viability: 1.18
ABC-1; first compound 4 µM
  relative viability: 0.989
SK-MES-1; first compound 0.04 µM
  relative viability: 1.02
SK-MES-1; first compound 0.1265 µM
  relative viability: 0.82
SK-MES-1; first compound 0.4 µM
  relative viability: 0.943
SK-MES-1; first compound 1.265 µM
  relative viability: 0.881
SK-MES-1; first compound 4 µM
  relative viability: 0.692
PC-3 [JPC-3]; first compound 0.04 µM
  relative viability: 1.05
PC-3 [JPC-3]; first compound 0.1265 µM
  relative viability: 0.977
PC-3 [JPC-3]; first compound 0.4 µM
  relative viability: 1.05
PC-3 [JPC-3]; first compound 1.265 µM
  relative viability: 0.987
PC-3 [JPC-3]; first compound 4 µM
  relative viability: 1.02
EKVX; first compound 0.04 µM
  relative viability: 0.836
EKVX; first compound 0.1265 µM
  relative viability: 0.838
EKVX; first compound 0.4 µM
  relative viability: 0.551
EKVX; first compound 4 µM
  relative viability: 0.727
COR-L23; first compound 0.04 µM
  relative viability: 1.08
COR-L23; first compound 0.1265 µM
  relative viability: 0.827
COR-L23; first compound 0.4 µM
  relative viability: 1.15
COR-L23; first compound 1.265 µM
  relative viability: 1.04
COR-L23; first compound 4 µM
  relative viability: 0.92
NCI-H520; first compound 0.04 µM
  relative viability: 0.875
NCI-H520; first compound 0.1265 µM
  relative viability: 0.662
NCI-H520; first compound 0.4 µM
  relative viability: 0.781
NCI-H520; first compound 1.265 µM
  relative viability: 0.842
NCI-H520; first compound 4 µM
  relative viability: 0.697
NCI-H1651; first compound 0.04 µM
  relative viability: 0.885
NCI-H1651; first compound 0.1265 µM
  relative viability: 0.768
NCI-H1651; first compound 0.4 µM
  relative viability: 0.94
NCI-H1651; first compound 1.265 µM
  relative viability: 0.803
NCI-H1651; first compound 4 µM
  relative viability: 0.817
CAL-12T; first compound 0.04 µM
  relative viability: 1.07
CAL-12T; first compound 0.1265 µM
  relative viability: 1.16
CAL-12T; first compound 0.4 µM
  relative viability: 1.05
CAL-12T; first compound 1.265 µM
  relative viability: 1.04
CAL-12T; first compound 4 µM
  relative viability: 1.05
SW 1573; first compound 0.04 µM
  relative viability: 0.997
SW 1573; first compound 0.1265 µM
  relative viability: 0.857
SW 1573; first compound 0.4 µM
  relative viability: 1.05
SW 1573; first compound 1.265 µM
  relative viability: 0.929
SW 1573; first compound 4 µM
  relative viability: 0.9
NCI-H2228; first compound 0.04 µM
  relative viability: 0.941
NCI-H2228; first compound 0.1265 µM
  relative viability: 0.928
NCI-H2228; first compound 0.4 µM
  relative viability: 0.968
NCI-H2228; first compound 1.265 µM
  relative viability: 0.946
NCI-H2228; first compound 4 µM
  relative viability: 0.778
NCI-H322M; first compound 0.04 µM
  relative viability: 1
NCI-H322M; first compound 0.1265 µM
  relative viability: 0.974
NCI-H322M; first compound 0.4 µM
  relative viability: 1.03
NCI-H322M; first compound 1.265 µM
  relative viability: 0.878
NCI-H322M; first compound 4 µM
  relative viability: 0.896
NCI-H661; first compound 0.04 µM
  relative viability: 1
NCI-H661; first compound 0.1265 µM
  relative viability: 1.04
NCI-H661; first compound 0.4 µM
  relative viability: 1.07
NCI-H661; first compound 1.265 µM
  relative viability: 0.975
NCI-H661; first compound 4 µM
  relative viability: 0.989
RERF-LC-KJ; first compound 0.04 µM
  relative viability: 0.889
RERF-LC-KJ; first compound 0.1265 µM
  relative viability: 0.927
RERF-LC-KJ; first compound 0.4 µM
  relative viability: 0.925
RERF-LC-KJ; first compound 1.265 µM
  relative viability: 0.89
RERF-LC-KJ; first compound 4 µM
  relative viability: 0.766
NCI-H1734; first compound 0.04 µM
  relative viability: 0.878
NCI-H1734; first compound 0.1265 µM
  relative viability: 0.833
NCI-H1734; first compound 0.4 µM
  relative viability: 0.912
NCI-H1734; first compound 1.265 µM
  relative viability: 0.736
NCI-H1734; first compound 4 µM
  relative viability: 0.782
H3255; first compound 0.04 µM
  relative viability: 0.763
H3255; first compound 0.1265 µM
  relative viability: 0.917
H3255; first compound 0.4 µM
  relative viability: 0.64
H3255; first compound 1.265 µM
  relative viability: 0.829
H3255; first compound 4 µM
  relative viability: 0.789
NCI-H1563; first compound 0.04 µM
  relative viability: 0.92
NCI-H1563; first compound 0.1265 µM
  relative viability: 0.874
NCI-H1563; first compound 0.4 µM
  relative viability: 0.995
NCI-H1563; first compound 1.265 µM
  relative viability: 0.875
NCI-H1563; first compound 4 µM
  relative viability: 0.901
LK-2; first compound 0.04 µM
  relative viability: 1.14
LK-2; first compound 0.1265 µM
  relative viability: 1.19
LK-2; first compound 0.4 µM
  relative viability: 1.29
LK-2; first compound 1.265 µM
  relative viability: 1.6
LK-2; first compound 4 µM
  relative viability: 1.5
HCC-827; first compound 0.04 µM
  relative viability: 1.07
HCC-827; first compound 0.1265 µM
  relative viability: 1.09
HCC-827; first compound 0.4 µM
  relative viability: 0.942
HCC-827; first compound 1.265 µM
  relative viability: 0.927
HCC-827; first compound 4 µM
  relative viability: 1.03
HCC-15; first compound 0.04 µM
  relative viability: 1
HCC-15; first compound 0.1265 µM
  relative viability: 1.06
HCC-15; first compound 0.4 µM
  relative viability: 1.02
HCC-15; first compound 1.265 µM
  relative viability: 0.996
HCC-15; first compound 4 µM
  relative viability: 1.03
NCI-H1355; first compound 0.04 µM
  relative viability: 1.01
NCI-H1355; first compound 0.1265 µM
  relative viability: 1.01
NCI-H1355; first compound 0.4 µM
  relative viability: 1.02
NCI-H1355; first compound 1.265 µM
  relative viability: 0.847
NCI-H1355; first compound 4 µM
  relative viability: 0.971
PC-14; first compound 0.04 µM
  relative viability: 0.981
PC-14; first compound 0.1265 µM
  relative viability: 0.855
PC-14; first compound 0.4 µM
  relative viability: 0.85
PC-14; first compound 1.265 µM
  relative viability: 0.895
PC-14; first compound 4 µM
  relative viability: 0.932
NCI-H1650; first compound 0.04 µM
  relative viability: 1.22
NCI-H1650; first compound 0.1265 µM
  relative viability: 1.05
NCI-H1650; first compound 0.4 µM
  relative viability: 0.89
NCI-H1650; first compound 1.265 µM
  relative viability: 1
NCI-H1650; first compound 4 µM
  relative viability: 1.27
